Results reported in patent US20080118553A1, “Tannate salt form of polypeptide mixtures, their preparation and use” (priority 2006, published 2008).

Test system: splenocytes (glatiramer specific T cells)
Experiment: Ex-vivo testing in CJSL mice: cytokine secretion by splenocytes activated in vitro with GA RS after daily feeding
Design: key: BQL: Below Quantifiable Limit; BDL: Below Detectable Limit; AQL: Above Quantifiable Limit
Settings: 50 μg/ml GA RS in-vitro
Procedure: Studies were conducted to test the potential properties of the mixture of polypeptides of the invention. In particular, the studies were to determine whether the mixture of polypeptides of the invention would elicit an immune response with similar cytokine patterns as those elicited by glatiramer acetate when tested in an ex-vivo model in mice.
Beginning on Day 0, groups of 4 CJSL Mice were fed daily with GA reference standard (GA RS, 12.5 μg/kg). Glatiramer Tannate (amount equivalent to 18.75 μg/kg), tannic acid (negative control, in an amount equivalent to the tannate administered to the 18.75 μg/kg glatiramer tannate group) or phosphate buffered saline (PBS—placebo control). During period of study, subsets of mice in each treatment group were sacrificed on days 4, 7 and 11. Spleens were excised and primary cell cultures were prepared. The effect of the treatment was tested by in-vitro activation of splenocytes with GA RS 50 μg/ml. The response of the cells to the challenge is a measure of previous exposure to Glatiramer and the generation of glatiramer specific T cells. T-cell response was monitored by detection of cytokines secreted from activated cells by ELISA analysis. The levels of IL-2, IL-3 and IL-5 cytokines were examined.

[1] = glatiramer dose NA (tannic acid equivalent to the tannate of the 18.75 group) daily oral, day of treatment 4
[2] = glatiramer dose NA (tannic acid equivalent to the tannate of the 18.75 group) daily oral, day of treatment 7
[3] = glatiramer dose NA (tannic acid equivalent to the tannate of the 18.75 group) daily oral, day of treatment 11
[4] = glatiramer treatment dose 12.5 Mg/kg daily oral, day of treatment 4
[5] = glatiramer treatment dose 12.5 Mg/kg daily oral, day of treatment 7
[6] = glatiramer treatment dose 12.5 Mg/kg daily oral, day of treatment 11

Compound	IL-2 secretion [1]	IL-3 secretion [1]	IL-5 secretion [1]	IL-2 secretion [2]	IL-3 secretion [2]	IL-5 secretion [2]	IL-2 secretion [3]	IL-3 secretion [3]	IL-5 secretion [3]	IL-2 secretion [4]	IL-3 secretion [4]	IL-5 secretion [4]	IL-2 secretion [5]	IL-3 secretion [5]	IL-5 secretion [5]	IL-2 secretion [6]	IL-3 secretion [6]	IL-5 secretion [6]
O=C(OC[C@H]1O[C@@H](OC(=O)c2cc(O)c(O)c(OC(=O)c3cc(O)c(O)c(O)c3)c2)[C@H](OC(=O)c2cc(O)c(O)c(OC(=O)c3cc(O)c(O)c(O)c3)c2)[C@@H](OC(=O)c2cc(O)c(O)c(OC(=O)c3cc(O)c(O)c(O)c3)c2)[C@@H]1OC(=O)c1cc(O)c(O)c(OC(=O)c2cc(O)c(O)c(O)c2)c1)c1cc(O)c(O)c(OC(=O)c2cc(O)c(O)c(O)c2)c1 [Tannic Acid, tannic acid]	BQL	BQL	BDL	26.7 pg/mL	76.9 pg/mL	BQL	16.6 pg/mL	63.2 pg/mL	BQL									
L-glutamic acid polymer with L-alanine, L-lysine and L-tyrosine, acetate (salt) [GA]										BQL	BQL	BDL	121.5 pg/mL	456.5 pg/mL	BQL	119.0 pg/mL	701.6 pg/mL	BQL
